Key:
human CCR10 = molecular target: T1, human CCR10 (Homo sapiens, UniProt P46092); test: CCR10 antagonistic effect: calcium assay of human CCR10 (CTACK-induced increase of intracellular calcium in hCCR10G16 cells); type: cell-based; conditions: at a concentration of not more than 1000 nmol/L; human CCR10-expressing hCCR10G16 cells, 300 nmol/L CTACK added; read-out: inhibition of increase in the calcium ion concentration
T1 construct: expressed in transfected cells; host or cells: KJMGER8 cells (Namalwa cell-derived line), beta-estradiol-induced; hCCR10G16 cells
T1 sequence (P46092 1-362): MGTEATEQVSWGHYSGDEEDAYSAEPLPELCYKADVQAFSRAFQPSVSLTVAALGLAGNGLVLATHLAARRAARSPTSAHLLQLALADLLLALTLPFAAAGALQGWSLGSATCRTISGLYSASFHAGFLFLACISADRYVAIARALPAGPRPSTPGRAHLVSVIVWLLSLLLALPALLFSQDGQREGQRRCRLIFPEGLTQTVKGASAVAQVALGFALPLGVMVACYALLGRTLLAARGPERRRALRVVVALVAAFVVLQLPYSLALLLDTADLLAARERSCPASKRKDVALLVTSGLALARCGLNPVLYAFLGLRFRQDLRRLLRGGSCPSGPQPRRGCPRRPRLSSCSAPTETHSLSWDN
Method in brief: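 KJMGER8-derived hCCR10G16 cells (CCR10 plus Gα16, induced 24 h with 10 nmol/L β-estradiol), Fluo-3 loaded, preincubated with compound 30 min at 37 °C. Stimulated with CTACK (300 nmol/L solution before addition); calcium read ~5 min by FDSS, max−min fluorescence; % inhibition vs control.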

[1] = tested on: Dinitrofluorobenzene-induced Auricle Edema Reaction in Mouse; test: Suppressive action on dinitrofluorobenzene-induced auricle edema reaction in mouse; type: in vivo; conditions: BALB/c mice; for suppressive action on auricle edema response (in words): topical application in acetone, summary of Table 28; for inhibition in vivo at 1 %: test compound concentration 1% (w/v) in acetone
Experimental: [Experimental Example 2] Suppressive Action on Dinitrofluorobenzene-induced Auricle Edema Reaction in Mouse
BALB/c mice (female, supplied by CHARLES RIVER LABORATORIES JAPAN, INC.) were purchased at the age of 5 weeks. After quarantine and acclimation, mice showing smooth body weight increase and free of abnormality in appearance were used and the test was started at the age of 7 weeks. The mice were housed in a breeding room at room temperature 19-25° C., humidity 30-70%, 12 hr lighting per day (7 a.m.-7 p.m.) with 3 mice in each plastic gauge, and bred on with free ingestion of a commercially available solid feed and water.
Two days before the test, the abdomen of the BALB/c mice was shaved, and the mice were immunized by applying 100 μL of a solution {concentration 0.5% [weight (w)/volume (v) %]} of dinitrofluorobenzene (manufactured by Nacalai Tesque) in acetone (manufactured by Wako Pure Chemical Industries, Ltd.) to the shaved part. The reaction was induced by applying dinitrofluorobenzene-acetone solution [concentration 0.2% (w/v %)] to the front and the back of auricle (10 μL to each, total 20 μL) on day 5 after the immunization. A test compound dissolved in acetone at concentration of 0.1% or 1% (w/v %) was administered by applying same to the front and the back of auricle (10 μL to each, total 20 μL) 1 hr before and 3 hr after induction of the reaction. After application, the applied part was air-dried with a dryer.
The group applying administered with the test compound was taken as a test compound administration group, and the group applying administered with acetone as a solvent instead of the test compound was taken as a solvent administration group. Also, the group free of immunization and reaction induction but applying administered with acetone instead of the test compound was taken as a normal group. The thickness of auricle was measured using a dial thickness gauge (G-1A manufactured by OZAKI MFG. CO., LTD.) immediately before and 24 hr after induction of the reaction, and the difference thereof was taken as auricle edema. The suppression rate (%) of auricle edema was calculated according to the following formula.

[2] = Mus musculus, topical, applied to auricle 1 hr before and 3 hr after induction, measured 24 hr after induction, read-out: auricle edema suppression rate (%)

| inhibition at up to 1 µM (human CCR10) | Structure (SMILES) | suppressive action on auricle edema response (in words) [1] | inhibition in vivo at 0.1 % ([1]; Mus musculus, topical, test compound concentration 0.1% (w/v) in acetone, applied to auricle 1 hr before and 3 hr after induction, measured 24 hr after induction, read-out: auricle edema suppression rate (%)) | inhibition in vivo at 1 % [1, 2] |
| --- | --- | --- | --- | --- |
| ≥ 50% | Cc1ccc(Cl)cc1Nc1c(C(=O)N2CCC(c3ccc(F)cc3)CC2)cnc(S(=O)(=O)Nc2ccon2)c1C [Compound 232, 4-(5-chloro-2-methylphenylamino)-5-[4-(4-fluorophenyl)piperidine-1-carbonyl]-N-(isoxazol-3-yl)-3-methylpyridine-2-sulfonamide] | showed a suppressive action on auricle edema response |  | 39% |
| ≥ 50% | Cc1c(S(=O)(=O)Nc2ccon2)ncc(C(=O)N2CCC(c3ccc(F)cc3)CC2)c1Nc1cccc(F)c1 [Compound 233, 5-[4-(4-fluorophenyl)piperidine-1-carbonyl]-4-(3-fluorophenylamino)-N-(isoxazol-3-yl)-3-methylpyridine-2-sulfonamide] | showed a suppressive action on auricle edema response |  | 24% |
| ≥ 50% | Cc1cc(NS(=O)(=O)c2ncc(C(=O)N3CCC(c4ccc(F)cc4)CC3)c(Nc3ccccc3C)c2C)sn1 [Compound 241, 5-[4-(4-fluorophenyl)piperidine-1-carbonyl]-3-methyl-N-(3-methylisothiazol-5-yl)-4-(o-tolylamino)pyridine-2-sulfonamide] | showed a suppressive action on auricle edema response |  | 27% |
| ≥ 50% | Cc1c(S(=O)(=O)Nc2ccon2)ncc(C(=O)N2CCC(c3ccc(F)cc3)CC2)c1Nc1ccc(Cl)cc1 [Compound 259, 4-(4-chlorophenylamino)-5-[4-(4-fluorophenyl)piperidine-1-carbonyl]-N-(isoxazol-3-yl)-3-methylpyridine-2-sulfonamide] | showed a suppressive action on auricle edema response |  | 38% |
| ≥ 50% | NS(=O)(=O)c1ncc(C(=O)N2CCC(c3ccc(F)cc3)CC2)c(Nc2ccc(C(F)(F)F)cc2)c1Cl [Compound 291, 3-chloro-5-[4-(4-fluorophenyl)piperidine-1-carbonyl]-4-[4-(trifluoromethyl)phenylamino]pyridine-2-sulfonamide] | showed a suppressive action on auricle edema response |  | 35% |

The next lines start with the compound.

| Structure (SMILES) | inhibition at up to 1 µM (human CCR10) | suppressive action on auricle edema response (in words) [1] | inhibition in vivo at 0.1 % ([1]; Mus musculus, topical, test compound concentration 0.1% (w/v) in acetone, applied to auricle 1 hr before and 3 hr after induction, measured 24 hr after induction, read-out: auricle edema suppression rate (%)) | inhibition in vivo at 1 % [1, 2] |
| --- | --- | --- | --- | --- |
| Cc1cc(Cl)ccc1Nc1cc(S(=O)(=O)NC(=O)NC2CC2)ncc1C(=O)N1CCC(c2ccc(F)cc2)CC1 [Compound 21, 4-(4-chloro-2-methylphenylamino)-N-(cyclopropylcarbamoyl)-5-[4-(4-fluorophenyl)piperidine-1-carbonyl]pyridine-2-sulfonamide] | ≥ 50% | showed a suppressive action on auricle edema response | 26% |  |
| CCNC(=O)NS(=O)(=O)c1cc(Nc2ccc(F)cc2C)c(C(=O)N2CCC(c3ccc(F)cc3)CC2)cn1 [Compound 22, N-(ethylcarbamoyl)-4-(4-fluoro-2-methylphenylamino)-5-[4-(4-fluorophenyl)piperidine-1-carbonyl]pyridine-2-sulfonamide] | ≥ 50% | showed a suppressive action on auricle edema response |  | 47% |
| Cc1cc(F)ccc1Nc1c(C(=O)N2CCC(c3ccc(F)cc3)CC2)cnc(S(N)(=O)=O)c1Cl [Compound 25, 3-chloro-4-(4-fluoro-2-methylphenylamino)-5-[4-(4-fluorophenyl)piperidine-1-carbonyl]pyridine-2-sulfonamide] | ≥ 50% | showed a suppressive action on auricle edema response |  | 47% |
| NS(=O)(=O)c1ncc(C(=O)N2CCC(c3ccc(F)cc3)CC2)c(Nc2cccc(Cl)c2)c1Cl [Compound 176, 3-chloro-4-(3-chlorophenylamino)-5-[4-(4-fluorophenyl)piperidine-1-carbonyl]pyridine-2-sulfonamide] | ≥ 50% | showed a suppressive action on auricle edema response |  | 42% |
